Melting point data for four compounds are collected here from patent US7544803B2, “Vanilloid receptor ligands and their use in treatments” (Amgen Inc., priority 2004, dated 2009).

The structures appear in SMILES notation.

A word on the melting point: it is the temperature of the solid-liquid transition. `O=C(Nc1ccc2cccnc2c1)c1cc2ccc(C(F)(F)F)cc2s1` yielded a melting point of 229.7 °C.

In turn, `O=C(Nc1ccc2cccnc2c1)c1cc2ncc(C(F)(F)F)cc2s1` [Example 6, 6-Trifluoromethyl-thieno[3,2-b]pyridine-2-carboxylic acid quinolin-7-ylamide] gave a melting point of 296 °C. With `O=C(Nc1ccc2cccnc2c1)c1ccc2cc(Br)ccc2c1` [Example 32, 6-Bromo-naphthalene-2-carboxylic acid quinolin-7-ylamide] the figure was 239.5 to 241.5 °C; with `O=C(Nc1ccc2cccnc2c1)c1ccc2cc(Br)ccc2n1` [Example 36, 6-Bromo-quinoline-2-carboxylic acid quinolin-7-ylamide], 156 to 157 °C.
